Values of other authors as cited in patent EP3290033A2, “PHARMACEUTICAL PACKAGE” (Samyang Biopharmaceuticals Corporation, priority 2015, dated 2016).

Assays:
[1] = in vivo
[2] = higher than that of other first-generation 5-HT3 receptor antagonists

half-life [1]: ≥ 40 h
Structure (SMILES): O=C1c2cccc3c2[C@H](CCC3)CN1[C@@H]1CN2CCC1CC2 [palonosetron, (3aS)-2-[(3S)-1-azabicyclo[2.2.2]oct-3-yl]-2,3,3a,4,5,6-hexahydro-1H-benz[de]isoquinolin-1-one]
inhibitory effect on delayed vomiting [2]: 10 times
